Measured values reported in ChEMBL document CHEMBL6153135, “Rational Design of a Potent, Selective, and Metabolically Stable CDK9 Inhibitor to Counteract Osimertinib Resistance through Mcl-1 Suppression and Enhanced BRD4 Co-Targeting” (J Med Chem, 2025).
Active and inactive are the calls of the source. The rule behind the calls is not given here.

Key:
[1] = system: HCC827; test: Selectivity ratio of IC50 for anti-proliferative activity against human HCC827 cells to IC50 for anti-proliferative activity against human HCC827 cells in presence of JQ1; type: functional
[2] = system: Lung adenocarcinoma organoid; test: Anti-tumor activity against patient (#2514)-derived human Lung adenocarcinoma organoid assessed as inhibition of cell viability measured after 96 hrs relative to control; type: functional, Neoplasm
[3] = system: Lung adenocarcinoma organoid; test: Anti-tumor activity against Osimertinib-resistant patient (#0085)-derived human Lung adenocarcinoma organoid assessed as inhibition of cell viability measured after 96 hrs; type: functional, tissue-based; details: Neoplasm
[4] = species on record: Homo sapiens; test: Inhibition of CDK12/Cyclin E1(unknown origin) at 100 nM preincubated for 10 mins followed by substrate/ATP measured after 60 mins by ADP-Glo assay relative to control; details: time 70.0 min
[5] = system: Osimertinib-resistant HCC827 cell; test: Inhibition of DNA replication in human Osimertinib-resistant HCC827 cells by KEGG analysis; type: functional, cell-based
[6] = Metabolic stability in monkey liver microsomes assessed as half life measured for 5 to 60 mins by LC-MS/MS analysis; type: ADME, Macaca mulatta, Microsome; details: rhesus monkey, time 5-60 min
[7] = Anti-proliferative activity against human Osimertinib-resistant HCC827 cells assessed as cell inhibition measured after 72 hrs in presence of 250 nM JQ1 by MTT assay; type: functional, cell-based
[8] = system: HCC827; test: Anti-proliferative activity against human HCC827 cells assessed as cell inhibition measured after 72 hrs in presence of 500 nM JQ1 by MTT assay; type: functional, cell-based; details: HCC827, 72 h
[9] = Apparent volume of distribution in BALB/c mouse at 15 mg/kg, po; type: ADME, organism-based; details: in vivo
[10] = Oral bioavailability in BALB/c mouse at 15 mg/kg; type: ADME, organism-based; details: in vivo
[11] = Metabolic stability in human liver microsomes assessed as half life measured for 5 to 60 mins by LC-MS/MS analysis; type: ADME, Microsome; details: time 5-60 min
[12] = AUC (0 to t) in BALB/c mouse at 2 mg/kg, iv; type: ADME, organism-based; details: in vivo
[13] = Toxicity in BALB-c mouse xenografted with human NCI-H1975 cells assessed as decrease in body weight at 5 mg/kg, iv; type: organism-based; details: in vivo
[14] = biological target: Cyclin-dependent kinase 9 (Homo sapiens) (UniProt P50750); test: Inhibition of CDK9 in human Osimertinib-resistant HCC827 cells assessed as decrease in Mcl-1 level at 100 to 500 nM incubated for 12 hrs by Western blot analysis; type: cell-based; details: Osimertinib-resistant HCC827 cell, dose 100-500 nM
Sequence of Cyclin-dependent kinase 9 (Homo sapiens) (P50750 whole entry): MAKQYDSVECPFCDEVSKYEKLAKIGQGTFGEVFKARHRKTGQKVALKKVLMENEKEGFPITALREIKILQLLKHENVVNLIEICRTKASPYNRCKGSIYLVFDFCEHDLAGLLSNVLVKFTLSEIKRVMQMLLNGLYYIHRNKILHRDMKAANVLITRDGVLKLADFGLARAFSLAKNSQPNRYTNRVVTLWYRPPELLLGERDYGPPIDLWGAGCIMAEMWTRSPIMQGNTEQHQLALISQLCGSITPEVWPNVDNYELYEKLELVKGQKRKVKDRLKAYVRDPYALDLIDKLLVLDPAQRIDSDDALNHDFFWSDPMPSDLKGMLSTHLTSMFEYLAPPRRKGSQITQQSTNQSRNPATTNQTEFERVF

[15] = Metabolic stability in dog liver microsomes assessed as clearance measured for 5 to 60 mins by LC-MS/MS analysis; type: ADME, Canis lupus familiaris, Microsome; details: time 5-60 min, read-out: CLH
[16] = Toxicity in BALB-c mouse xenografted with human Osimertinib-resistant HCC827 cells assessed as decrease in body weight at 5 mg/kg, iv in presence of JQ1; type: organism-based; details: in vivo
[17] = Apparent volume of distribution in Sprague-Dawley rat at 2 mg/kg, iv; type: ADME, organism-based; details: in vivo, read-out: Vz
[18] = biological target: Homeodomain-interacting protein kinase 2 (Homo sapiens) (UniProt Q9H2X6); test: Inhibition of HIPK2 (unknown origin) at 100 nM preincubated for 10 mins followed by substrate/ATP measured after 60 mins by ADP-Glo assay relative to control; details: time 70.0 min
Sequence of Homeodomain-interacting protein kinase 2 (Homo sapiens) (Q9H2X6 whole entry, looked up): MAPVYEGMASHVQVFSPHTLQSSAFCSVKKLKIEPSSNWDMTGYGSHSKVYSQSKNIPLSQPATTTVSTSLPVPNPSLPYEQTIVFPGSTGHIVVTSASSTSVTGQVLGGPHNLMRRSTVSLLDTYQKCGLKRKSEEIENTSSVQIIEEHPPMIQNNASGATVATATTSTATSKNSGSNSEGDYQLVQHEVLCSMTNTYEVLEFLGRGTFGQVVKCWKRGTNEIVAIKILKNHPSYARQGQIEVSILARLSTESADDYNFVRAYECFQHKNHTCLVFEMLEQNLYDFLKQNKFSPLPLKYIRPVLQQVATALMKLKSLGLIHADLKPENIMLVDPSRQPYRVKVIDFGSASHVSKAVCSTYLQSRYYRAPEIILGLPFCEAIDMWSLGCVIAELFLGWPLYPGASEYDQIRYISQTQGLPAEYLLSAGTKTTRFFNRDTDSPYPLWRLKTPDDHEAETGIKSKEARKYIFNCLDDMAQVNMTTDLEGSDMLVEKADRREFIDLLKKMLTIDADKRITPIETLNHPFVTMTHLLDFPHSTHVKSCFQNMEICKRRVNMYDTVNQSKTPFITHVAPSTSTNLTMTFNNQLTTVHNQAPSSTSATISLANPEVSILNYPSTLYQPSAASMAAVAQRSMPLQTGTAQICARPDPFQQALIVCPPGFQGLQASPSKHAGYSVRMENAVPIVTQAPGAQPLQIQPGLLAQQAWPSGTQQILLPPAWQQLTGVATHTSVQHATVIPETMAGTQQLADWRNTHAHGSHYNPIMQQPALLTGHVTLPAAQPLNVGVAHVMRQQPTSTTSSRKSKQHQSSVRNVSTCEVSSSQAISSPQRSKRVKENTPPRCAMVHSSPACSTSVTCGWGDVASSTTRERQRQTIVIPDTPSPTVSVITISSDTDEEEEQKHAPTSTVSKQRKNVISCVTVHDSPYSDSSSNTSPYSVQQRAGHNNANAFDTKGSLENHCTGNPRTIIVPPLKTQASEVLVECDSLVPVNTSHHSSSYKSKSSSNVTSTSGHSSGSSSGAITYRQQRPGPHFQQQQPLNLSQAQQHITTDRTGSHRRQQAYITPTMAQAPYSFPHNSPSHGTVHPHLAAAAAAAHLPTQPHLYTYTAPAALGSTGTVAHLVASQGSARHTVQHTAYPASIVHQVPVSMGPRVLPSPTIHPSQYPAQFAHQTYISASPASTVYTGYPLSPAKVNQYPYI

[19] = system: Lung adenocarcinoma organoid; test: Anti-tumor activity against Osimertinib-resistant patient (#0416)-derived human Lung adenocarcinoma organoid assessed as inhibition of cell viability measured after 96 hrs relative to control; type: functional, Neoplasm
[20] = Toxicity in BALB-c mouse xenografted with human Osimertinib-resistant HCC827 cells assessed as decrease in body weight at 5 mg/kg, iv; type: organism-based; details: in vivo
[21] = AUC (0 to t) in Sprague-Dawley rat at 20 mg/kg, po; type: ADME, organism-based; details: in vivo
[22] = Toxicity in BALB-c nude mouse xenografted with human NCI-H1975 cells assessed as pathological damage in liver at 15 mg/kg, iv administered on every two days by H and E staining based analysis; type: organism-based; details: in vivo
[23] = Apparent volume of distribution in Sprague-Dawley rat at 20 mg/kg, po; type: ADME, organism-based; details: in vivo
[24] = biological target: Cyclin-dependent kinase 9 (Homo sapiens) (UniProt P50750); test: Inhibition of CDK9 in human Osimertinib-resistant HCC827 cells assessed as decrease in Mcl-1 mRNA level in presence of JQ1 by RNA-Seq analysis; type: cell-based; details: Osimertinib-resistant HCC827 cell
[25] = system: Osimertinib-resistant NCI-H1975 cell; test: Anti-proliferative activity against human Osimertinib-resistant NCI-H1975 cells assessed as cell inhibition measured after 72 hrs in presence of 100 nM JQ1 by MTT assay; type: functional, cell-based
[26] = biological target: Cyclin-dependent kinase 2/cyclin E1 (Homo sapiens) (UniProt P24864+P24941); test: Inhibition of CDK2/cyclin E1 (unknown origin) at 100 nM preincubated for 10 mins followed by substrate/ATP measured after 60 mins by ADP-Glo assay relative to control; type: protein-complex assay; details: time 70.0 min
[27] = biological target: CDK18/Cyclin Y (Homo sapiens) (UniProt Q07002+Q8ND76); test: Inhibition of CDK18/Cyclin Y(unknown origin) at 100 nM preincubated for 10 mins followed by substrate/ATP measured after 60 mins by ADP-Glo assay relative to control; type: protein-complex assay; details: time 70.0 min
[28] = system: Osimertinib-resistant NCI-H1975 cell; test: Induction of apoptosis in human Osimertinib-resistant NCI-H1975 cells assessed as early apoptotic cells at 0.5 uM incubated for 16 hrs by Annexin V-FITC/PI staining based flow cytometry (reference value: 8.02 %); type: functional
[29] = system: Osimertinib-resistant NCI-H1975 cell; test: Selectivity ratio of IC50 for anti-proliferative activity against human Osimertinib-resistant NCI-H1975 cells to IC50 for anti-proliferative activity against human Osimertinib-resistant NCI-H1975 cells in presence of JQ1; type: functional
[30] = system: Lung adenocarcinoma organoid; test: Anti-tumor activity against multidrug-resistant patient (#2663)-derived human Lung adenocarcinoma organoid assessed as inhibition of cell viability measured after 96 hrs; type: functional, tissue-based; details: Neoplasm
[31] = Clearance in Sprague-Dawley rat at 20 mg/kg, po; type: ADME, organism-based; details: in vivo
[32] = system: Osimertinib-resistant NCI-H1975 cell; test: Induction of apoptosis in human Osimertinib-resistant NCI-H1975 cells assessed as necrotic cells at 0.5 uM incubated for 16 hrs by Annexin V-FITC/PI staining based flow cytometry (reference value: 1.17 %); type: functional
[33] = Half life in Sprague-Dawley rat at 2 mg/kg, iv; type: ADME, organism-based; details: in vivo
[34] = Cmax in BALB/c mouse at 15 mg/kg, po; details: in vivo
[35] = system: HCC827; test: Anti-proliferative activity against human HCC827 cells assessed as cell inhibition measured after 72 hrs by MTT assay; type: functional, cell-based; details: HCC827, 72 h
[36] = Metabolic stability in rat liver microsomes assessed as clearance measured for 5 to 60 mins by LC-MS/MS analysis; type: ADME, Microsome; details: time 5-60 min, read-out: CLH
[37] = system: Osimertinib-resistant HCC827 cell; test: Inhibition of chromosome organisation in human Osimertinib-resistant HCC827 cells by KEGG analysis; type: functional, cell-based
[38] = Half life in BALB/c mouse at 15 mg/kg, po; type: ADME, organism-based; details: in vivo
[39] = system: Osimertinib-resistant HCC827 cell; test: Antitumor activity against human Osimertinib-resistant HCC827 cells xenografted in BALB-c nude mouse assessed as tumor growth inhibition at 5 mg/kg, iv; type: functional, organism-based
[40] = biological target: CDK9/cyclin T1 (Homo sapiens, UniProt P50750); test: Inhibition of CDK9/cyclin T1 (unknown origin) preincubated for 10 mins followed by substrate/ATP measured after 60 mins by ADP-Glo assay; type: protein-complex assay
Sequence of CDK9/cyclin T1 (O60563 whole entry): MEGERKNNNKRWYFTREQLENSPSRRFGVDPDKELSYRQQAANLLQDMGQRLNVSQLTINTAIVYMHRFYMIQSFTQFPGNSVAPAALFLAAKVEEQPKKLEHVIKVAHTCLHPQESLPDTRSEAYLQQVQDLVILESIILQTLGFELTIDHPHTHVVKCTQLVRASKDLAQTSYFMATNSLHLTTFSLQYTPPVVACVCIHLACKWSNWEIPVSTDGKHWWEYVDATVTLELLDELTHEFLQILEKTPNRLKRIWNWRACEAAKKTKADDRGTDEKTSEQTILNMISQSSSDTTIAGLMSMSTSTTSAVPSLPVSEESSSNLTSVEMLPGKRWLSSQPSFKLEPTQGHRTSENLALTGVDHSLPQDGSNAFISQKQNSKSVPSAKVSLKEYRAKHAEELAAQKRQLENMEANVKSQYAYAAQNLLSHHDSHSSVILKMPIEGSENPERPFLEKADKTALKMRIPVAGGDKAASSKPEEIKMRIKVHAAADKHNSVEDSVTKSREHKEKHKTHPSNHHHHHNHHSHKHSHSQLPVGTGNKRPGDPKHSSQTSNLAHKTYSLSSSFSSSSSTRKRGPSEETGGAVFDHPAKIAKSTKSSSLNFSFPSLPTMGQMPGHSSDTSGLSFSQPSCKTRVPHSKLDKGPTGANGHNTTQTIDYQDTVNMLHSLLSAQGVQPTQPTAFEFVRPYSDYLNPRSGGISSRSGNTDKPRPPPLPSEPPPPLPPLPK
Sequence of CDK9/cyclin T1 (P50750 whole entry): as the sequence (P50750 whole entry) above

## CC(=O)N1CCC(NC(=O)c2ccc3cc2OCCCCCCOc2cc(ccc2F)-c2nc(ncc2F)N3)CC1
[1]
  Ratio IC50: 10
[2]
  Imax: 99.9%
[3]
  IC50: 44.7 nM
[4]
  inhibition: 23.7%
[5]
  inhibition: Active
[6]
  half-life: 0.985 h
[7]
  IC50: 12.3 nM
[8]
  IC50: 9.7 nM
[9]
  Vz: 109.3 L/kg
[10]
  bioavailability: 25.8%
[11]
  half-life: 2.14 h
[12]
  AUC(0-t): 380 ng·h/mL
[13]
  Activity: Non-toxic
[14]
  inhibition: Active
[15]
  microsomal CLint: 18.4 µL/min/mg
[16]
  Activity: Non-toxic
[17]
  Vd: 1.9 L/kg
[18]
  inhibition: 96%
[19]
  Imax: >98%
[20]
  Activity: Non-toxic
[21]
  AUC(0-t): 3610 ng·h/mL
[22]
  Activity: Non-toxic
[23]
  Vz: 30 L/kg
[24]
  inhibition: Active
[25]
  IC50: 26.8 nM
[26]
  inhibition: 50.2%
[27]
  inhibition: 5.98%
[28]
  Activity: 25.4%
[29]
  Ratio IC50: 10
[30]
  IC50: < 50 nM
[31]
  CL/F: 63.3 mL/min/kg
[32]
  Activity: 1.46%
[33]
  half-life: 1.57 h
[34]
  Cmax: 344.1 ng/mL
[35]
  IC50: 150 nM
[36]
  microsomal CLint: 38.4 µL/min/mg
[37]
  inhibition: Active
[38]
  half-life: 3.5 h
[39]
  inhibition: inactive
[40]
  IC50: 1.2 nM
